What was measured:
[1] = target: T1, ALK2 R206H (GST-tagged mutant ALK2) (Homo sapiens, UniProt Q04771, R206H); assay: ALK binding assay (LANTHASCREEN TR-FRET competitive binding, displacement of Kinase Tracer 178); details: ALK2 R206H, LANTHASCREEN TR-FRET competitive binding; read-out: Binding Assay (IC50)
T1 construct: purchased Carna Bioscience or ThermoFisher 09-148 or PV6232
T1 sequence (Q04771 21-509 R206H): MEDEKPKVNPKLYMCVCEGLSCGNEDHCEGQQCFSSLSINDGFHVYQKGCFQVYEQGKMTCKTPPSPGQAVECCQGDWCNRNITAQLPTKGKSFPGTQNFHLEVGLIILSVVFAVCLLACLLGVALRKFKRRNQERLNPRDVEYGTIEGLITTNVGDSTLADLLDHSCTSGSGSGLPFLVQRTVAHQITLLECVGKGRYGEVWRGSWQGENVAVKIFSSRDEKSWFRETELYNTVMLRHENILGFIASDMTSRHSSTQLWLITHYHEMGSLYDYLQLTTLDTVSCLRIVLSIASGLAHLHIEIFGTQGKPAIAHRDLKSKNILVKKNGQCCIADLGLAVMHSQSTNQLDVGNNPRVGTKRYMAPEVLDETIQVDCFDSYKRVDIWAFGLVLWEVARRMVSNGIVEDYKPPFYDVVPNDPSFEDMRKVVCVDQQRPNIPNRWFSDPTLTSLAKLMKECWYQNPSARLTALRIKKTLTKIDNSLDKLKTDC

human ALK2 R206H = target: T2, human ALK2 R206H (Homo sapiens, UniProt Q04771, R206H); assay: Cell-based ALK2-R206H cell activity assay (Smad1-Ser463/Ser465 phosphorylation by AlphaLISA in HEK293-ALK2-R206H cells); details: read-out: Cell Line (Cell Assay IC50)
T2 construct: expressed in transfected cells; host or cells: HEK293 (ATCC CRL1573), lentivirus transduction, blasticidin selection
T2 sequence (Q04771 21-509 R206H): T1 sequence (Q04771 21-509 R206H)
Procedure, shortened: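 Stable HEK293 cells expressing C-terminally FLAG-tagged human ALK2 R206H (lentiviral, blasticidin-selected) were treated with compounds in 10-point, 3-fold dilutions from 10 μM or 1 μM top, in duplicate. Smad1 Ser463/Ser465 phosphorylation was read by AlphaLISA.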

Row | SMILES | IC50 [1] [nM] | IC50 (human ALK2 R206H) [nM]
1 | CCNC(=O)N1CCN(c2ccnn3cc(-c4cnc(N5CCN(C(C)C)CC5)cn4)cc23)CC1 [Compound 554] | < 10 | 100 to 500
2 | CC(C)NC(=O)N1CCN(c2ccnn3cc(-c4cnn([C@@H]5CCCN(C(C)C)C5)c4)cc23)CC1 [Compound 556] | < 10 | < 100
3 | CC(C)NC(=O)N1CCN(c2ccnn3cc(-c4cnn([C@H]5CCCN(C(C)C)C5)c4)cc23)CC1 [Compound 557] | < 10 | < 100
4 | O=C(OC1COC1)N1CCN(c2ccnn3cc(-c4ccc([C@]5(F)CCCNC5)cc4)cc23)CC1 [Compound 558] | < 10 | < 100
5 | O=C(OC1COC1)N1CCN(c2ccnn3cc(-c4ccc([C@@]5(F)CCCNC5)cc4)cc23)CC1 [Compound 559] | < 10 | < 100
6 | CCC(C)N1CCC[C@@H](c2ccc(-c3cc4c(N5CCN(C(=O)C6CC6)CC5)ccnn4c3)cc2)C1 (some centres unmarked) [Compound 560] | < 10 | < 100
7 | CC[C@H](C)N1CCC[C@@H](c2ccc(-c3cc4c(N5CCN(C(=O)C6CC6)CC5)ccnn4c3)cc2)C1 [Compound 561] | < 10 | < 100
8 | CC[C@@H](C)N1CCC[C@@H](c2ccc(-c3cc4c(N5CCN(C(=O)C6CC6)CC5)ccnn4c3)cc2)C1 [Compound 562] | < 10 | < 100
9 | CC[C@@H](C)N1CCC(c2ccc(-c3cc4c(N5CCN(C(=O)C6CC6)CC5)ccnn4c3)cc2)CC1 [Compound 563] | < 10 | < 100
10 | CC[C@H](C)N1CCC(c2ccc(-c3cc4c(N5CCN(C(=O)C6CC6)CC5)ccnn4c3)cc2)CC1 [Compound 564] | < 10 | < 100
11 | CC(C)N1CCC(C)(c2ccc(-c3cc4c(N5CCN(C(=O)C6CC6)CC5)ccnn4c3)cc2)CC1 [Compound 565] | < 10 | < 100
12 | CC(C)N1CCN(C)C(c2ccc(-c3cc4c(N5CCN(C(=O)C6CC6)CC5)ccnn4c3)cc2)C1 (centres unmarked) [Compound 566] | < 10 | < 100
13 | CC(C)N1CCN(C)[C@@H](c2ccc(-c3cc4c(N5CCN(C(=O)C6CC6)CC5)ccnn4c3)cc2)C1 [Compound 567] | < 10 | < 100
14 | CC(C)N1CCN(C)[C@H](c2ccc(-c3cc4c(N5CCN(C(=O)C6CC6)CC5)ccnn4c3)cc2)C1 [Compound 568] | < 10 | < 100
15 | CC(C)N1CCN[C@](C)(c2ccc(-c3cc4c(N5CCN(C(=O)C6CC6)CC5)ccnn4c3)nc2)C1 [Compound 575] | < 10 | 100 to 500
16 | CC(C)N1CCN[C@@](C)(c2ccc(-c3cc4c(N5CCN(C(=O)C6CC6)CC5)ccnn4c3)nc2)C1 [Compound 576] | < 10 | < 100
17 | CC(C)NC(=O)N1CCN(c2ccnn3cc(-c4ccc([C@@H]5CCCN(C(C)C)C5)cc4)cc23)CC1 [Compound 577] | < 10 | < 100

Row | SMILES | IC50 [1] [nM] | IC50 (human ALK2 R206H) [nM]
18 | CC(C)NC(=O)N1CCN(c2ccnn3cc(-c4ccc([C@H]5CCCN(C(C)C)C5)cc4)cc23)CC1 [Compound 578] | < 10 | < 100
19 | CCCNC(=O)N1CCN(c2ccnn3cc(-c4ccc([C@H]5CCCN(C(C)C)C5)cc4)cc23)CC1 [Compound 579] | < 10 | < 100
20 | CCCNC(=O)N1CCN(c2ccnn3cc(-c4ccc([C@@H]5CCCN(C(C)C)C5)cc4)cc23)CC1 [Compound 580] | < 10 | < 100
21 | CCOC(=O)N1CCN(c2ccnn3cc(-c4ccc(C5(C)CCN(C(C)C)CC5)cc4)cc23)CC1 [Compound 585] | < 10 | < 100
22 | CCOC(=O)N1CCN(c2ccnn3cc(-c4ccc([C@@H]5CCCN(C(C)C)C5)cc4)cc23)C[C@H]1C [Compound 586] | < 10 | 100 to 500
23 | CCNC(=O)N1CCN(c2ccnn3cc(-c4ccc(C5CN(C(C)C)CCN5C)cc4)cc23)CC1 (centres unmarked) [Compound 587] | < 10 | < 100
24 | CC(C)NC(=O)N1CCN(c2ccnn3cc(-c4ccc([C@@H]5CCCN(C(C)C)C5)cn4)cc23)CC1 [Compound 588] | < 10 | < 100
25 | CC(C)NC(=O)N1CCN(c2ccnn3cc(-c4ccc([C@H]5CCCN(C(C)C)C5)cn4)cc23)CC1 [Compound 589] | < 10 | < 100
26 | CC(C)NC(=O)N1CCN(c2ccnn3cc(-c4ccc(C5COCCN5C(C)C)cc4)cc23)CC1 (centres unmarked) [Compound 594] | < 10 | < 100
27 | COC1(c2ccc(-c3cc4c(N5CCN(C(=O)OC6COC6)CC5)ccnn4c3)cc2)CCNCC1 [Compound 599] | < 10 | < 100
28 | CO[C@@]1(c2ccc(-c3cc4c(N5CCN(C(=O)OC6COC6)CC5)ccnn4c3)cc2)CCCNC1 [Compound 600] | < 10 | < 100
29 | CO[C@]1(c2ccc(-c3cc4c(N5CCN(C(=O)OC6COC6)CC5)ccnn4c3)cc2)CCCNC1 [Compound 601] | < 10 | < 100
30 | CCNC(=O)N1CCN(c2ccnn3cc(-c4ccc([C@]5(O)CCCN(C(C)C)C5)cn4)cc23)CC1 [Compound 605] | < 10 | < 100
31 | CCNC(=O)N1CCN(c2ccnn3cc(-c4ccc([C@@]5(O)CCCN(C(C)C)C5)cn4)cc23)CC1 [Compound 606] | < 10 | < 100
32 | CC(C)NC(=O)N1CCN(c2ccnn3cc(-c4ccc([C@@]5(O)CCN(C(C)C)C5)cn4)cc23)CC1 [Compound 608] | < 10 | 100 to 500
33 | COC1(c2ccc(-c3cc4c(N5CCN(C(=O)OC6COC6)CC5)ccnn4c3)nc2)CCNCC1 [Compound 609] | < 10 | < 100

Results, then the molecule that gave them:

Row | IC50 [1] [nM] | IC50 (human ALK2 R206H) [nM] | SMILES
34 | < 10 | < 100 | CC(C)N1CCN[C@](C)(c2ccc(-c3cc4c(N5CCN(C(=O)C6CC6)CC5)ccnn4c3)cc2)C1 [Compound 570]
35 | < 10 | < 100 | CO[C@]1(c2ccc(-c3cc4c(N5CCN(C(=O)C6CC6)CC5)ccnn4c3)cc2)CCN(C(C)C)C1 [Compound 572]
36 | < 10 | < 100 | CO[C@@]1(c2ccc(-c3cc4c(N5CCN(C(=O)C6CC6)CC5)ccnn4c3)cc2)CCN(C(C)C)C1 [Compound 573]
37 | < 10 | < 100 | CC(C)NC(=O)N1CCN(c2ccnn3cc(-c4ccc([C@]5(C)CCCN5C(C)C)cc4)cc23)CC1 [Compound 581]
38 | < 10 | < 100 | CC(C)NC(=O)N1CCN(c2ccnn3cc(-c4ccc([C@@]5(C)CCCN5C(C)C)cc4)cc23)CC1 [Compound 582]
39 | < 10 | < 100 | CC(C)N1CCC(F)(c2ccc(-c3cc4c(N5CCN(C(=O)C6CC6)CC5)ccnn4c3)cc2)CC1 [Compound 583]
40 | < 10 | < 100 | CCNC(=O)N1CCN(c2ccnn3cc(-c4ccc([C@]5(O)CCCN(C(C)C)C5)cc4)cc23)CC1 [Compound 591]
41 | < 10 | < 100 | CCNC(=O)N1CCN(c2ccnn3cc(-c4ccc([C@@]5(O)CCCN(C(C)C)C5)cc4)cc23)CC1 [Compound 592]
42 | < 10 | < 100 | COC1(c2ccc(-c3cc4c(N5CCN(C(=O)NC(C)C)CC5)ccnn4c3)cc2)CN(C(C)C)C1 [Compound 593]
43 | < 10 | < 100 | CC(C)NC(=O)N1CCN(c2ccnn3cc(-c4ccc([C@@]5(O)CCN(C(C)C)C5)cc4)cc23)CC1 [Compound 595]
44 | < 10 | 100 to 500 | CC(C)NC(=O)N1CCN(c2ccnn3cc(-c4ccc([C@]5(O)CCN(C(C)C)C5)cc4)cc23)CC1 [Compound 596]
45 | < 10 | < 100 | CCOC(=O)N1CCN(c2ccnn3cc(-c4ccc([C@@]5(C)CN(C(C)C)CCN5)cc4)cc23)CC1 [Compound 597]
46 | < 10 | < 100 | CCOC(=O)N1CCN(c2ccnn3cc(-c4ccc([C@]5(C)CN(C(C)C)CCN5)cc4)cc23)CC1 [Compound 598]
47 | < 10 | < 100 | CCOC(=O)N1CCN(c2ccnn3cc(-c4ccc([C@@]5(OC)CCN(C(C)C)C5)cc4)cc23)CC1 [Compound 603]
48 | < 10 | < 100 | CCOC(=O)N1CCN(c2ccnn3cc(-c4ccc([C@]5(OC)CCN(C(C)C)C5)cc4)cc23)CC1 [Compound 604]
49 | < 10 | < 100 | CCOC(=O)N1CCN(c2ccnn3cc(-c4ccc([C@]5(F)CCCN(C(C)C)C5)cc4)cc23)CC1 [Compound 610]
50 | < 10 | < 100 | CCOC(=O)N1CCN(c2ccnn3cc(-c4ccc([C@@]5(F)CCCN(C(C)C)C5)cc4)cc23)CC1 [Compound 611]
51 | < 10 | < 100 | CCOC(=O)N1CCN(c2ccnn3cc(-c4ccc([C@]5(F)CCCN(C(C)C)C5)cn4)cc23)CC1 [Compound 613]
52 | < 10 | < 100 | CCOC(=O)N1CCN(c2ccnn3cc(-c4ccc([C@@]5(F)CCCN(C(C)C)C5)cn4)cc23)CC1 [Compound 614]
